This is an account of results in paper PMC4055159, “Application of Molecular Modeling to Urokinase Inhibitors Development” (BioMed Research International, 2014).

The target in one data set is urokinase (uPA) (Homo sapiens, UniProt P00749). Description: urokinase inhibition testing in vitro, chromogenic substrate S-2444, optical density at 405 nm. The class given is biochemical. To be noted: read-out: Experiment, uPA inhibition activity (IC50). As to the method:
After selection of the most promising candidates for new urokinase inhibitors, we tested their inhibition activities in vitro. The experiments were carried out on the system with the urokinase specimen, the tested ligand, and the special substrate—a synthetic Pyro-Glu-Gly-Arg-pNA peptide (S-2444). Urokinase decomposes the substrate with production of the chromogenic product. When the inhibitor binds to the urokinase active site, this production is slowed down. The higher the inhibition activity of the ligand, the slower the working of urokinase and the slower the accumulation of chromogenic product. Thus, the inhibitory activity can be measured by the rate of optical density change at the 405 nm wavelength. […] Error of the method for IC50 measurement in micromole range is about […].
Experimental tests were performed as indicated in paragraph 3.5 of “Methods.” Urokinase proteolytic activity in the presence of inhibitor (and also in absence of inhibitor, labeled “control” in Figure 4) was determined by releasing the paranitroanilide by means of measuring of absorption with a wave length of 405 nm each minute at 30°C. Figure 4 is a diagram of relationship between optical density and time. The angle of curve describes the reaction rate: the lower it is (compared with “control”, which corresponds to urokinase without inhibitors), the better inhibitor works.

Another data set has as its target uPA. Also noted: method as in PMID 8495419. To be noted: cited from earlier work.
Details of data set [1]: method as in PMID 19200050. The conditions noted are these: cited from earlier work.
The next data set concerns the target human uPA. Further details: method as in PMID 15582418, PMID 12113833, PMID 11755349, PMID 15149680, PMID 17447747. To be noted: read-out: K i against human uPA; cited from earlier work.

Each structure is given as a SMILES string. Read-outs that look alike come from different tables or passages of the source.

Usually IC50 stands for the concentration that inhibits the measured activity by half. For the molecule `Nc1ncc(-c2ccc(F)cc2)[nH]1` [AIM-0027], the IC50 at urokinase (uPA) (ordered compounds, Table S2) was 500 µM.

Take `N=C(N)c1cc2c(I)cccc2s1` [B428]: the Ki on uPA was 0.53 µM.

For `Cc1[nH]c2ccc(Oc3ccccc3)cc2c1CCN` [TRY-0074], on urokinase (uPA) (ordered compounds, Table 7), the IC50 is 260 µM.

`N=C(N)Sc1ccccn1` [U001R]: at urokinase (uPA) (synthesized compounds, Table 8), the IC50 was greater than 500 µM.

For `N=C(N)Sc1ccccc1` [U002R], the IC50 on urokinase (uPA) (synthesized compounds, Table 8) was greater than 500 µM.

With `Nc1cc2ccccc2cn1` [U003P], the half-inhibitory concentration (IC50) on urokinase (uPA) (synthesized compounds, Table 8) is greater than 500 µM.

Regarding `Nc1nc(-c2ccccc2)c[nH]1` [U005r], the IC50 on urokinase (uPA) (synthesized compounds, Table 8) came to 500 µM.

On to `NC1=NCC(COc2ccccc2)O1` (centres unmarked) [U006R], for which the IC50 at urokinase (uPA) (synthesized compounds, Table 8) was greater than 500 µM.

In the case of `N=C(N)Sc1ccc(Br)cn1` [U007R], the IC50 on urokinase (uPA) (synthesized compounds, Table 8) was greater than 500 µM.

Regarding `Nc1nc(-c2ccc3ccccc3c2)cs1` [U009T], at urokinase (uPA) (synthesized compounds, Table 8), the IC50 is greater than 500 µM.

Regarding `NC1=NCC(COc2c(Cl)cccc2Cl)O1` (centres unmarked) [U012T], at urokinase (uPA) (synthesized compounds, Table 8), the IC50 is greater than 500 µM.

As to `Cc1cccc(C)c1OCC1CN=C(N)O1` (centres unmarked) [U013T], the IC50 on urokinase (uPA) (synthesized compounds, Table 8) is greater than 500 µM.

In the case of `Nc1ccc2[nH]c(N)nc2c1` [U014R], the IC50 at urokinase (uPA) (synthesized compounds, Table 8) stood at 200 µM.

Turning to `Nc1nc2cc([N+](=O)[O-])ccc2[nH]1` [U014aR], the IC50 on urokinase (uPA) (synthesized compounds, Table 8) was greater than 500 µM.

`Nc1nc2cc(NS(=O)(=O)c3ccccc3)ccc2[nH]1` [U015R]: on urokinase (uPA) (synthesized compounds, Table 8), the IC50 was greater than 500 µM.

In the case of `CC(=O)Nc1ccc2[nH]c(N)nc2c1` [U017R], at urokinase (uPA) (synthesized compounds, Table 8), the half-maximal inhibitory concentration (IC50) is 200 µM.

Consider `COc1ccc2nc(N)[nH]c2c1` [U019R], for which the IC50 at urokinase (uPA) (synthesized compounds, Table 8) stood at 500 µM.

Turning to `Nc1nc2cc(F)ccc2[nH]1` [U020R], the IC50 on urokinase (uPA) (synthesized compounds, Table 8) was 500 µM.

Consider `N=C(N)Nc1n[nH]c2ccccc12` [U021R], for which the IC50 at urokinase (uPA) (synthesized compounds, Table 8) is 500 µM.

On to `N=C(N)Nc1nsc2ccccc12` [U024R, 1,2-benzisothiazol-3-yl-guanidine], for which, at urokinase (uPA) (synthesized compounds, Table 8), the IC50 came out at 33 µM.

For `N=C(N)Nc1nsc2ccc(Br)cc12` [U026R, (5-bromo-1,2-benzisothiazol-3-yl) guanidine], at urokinase (uPA) (synthesized compounds, Table 8), the IC50 lay within 4 to 20 µM.

For `CCOC(=O)N1CCN(C(=O)C(Cc2cccc(C(=N)N)c2)NS(=O)(=O)c2c(C(C)C)cc(C(C)C)cc2C(C)C)CC1` (centres unmarked) [WX-UK1], the oral absorption result in data set [1] is recorded as “not absorbed orally”. Further, at human uPA, the Ki was 0.6 µM.
